Experimental data reported in patent US20240150287A1, “N-(BENZOYL)-PHENYLALANINE COMPOUND, PHARMACEUTICAL COMPOSITION CONTAINING SAME, AND USE THEREOF” (Hangzhou Apeloa Medicine Research Institute Co., Ltd., priority 2021, published 2024).

These molecules were tested against recombinant human integrin α4β7 (binding to recombinant human MAdCAM-1) (Homo sapiens (Human), UniProt P13612+P26010) (assay: MAdCAM-1/α4β7 integrin binding inhibition activity evaluation test (α4β7-MAdCAM-1 ELISA)). Details: plate-coated recombinant human MAdCAM-1, recombinant human α4β7, 2 h room temperature, free form of compound.
Experimental: EXAMPLE: MADCAM-1/α4β7 INTEGRIN BINDING INHIBITION ACTIVITY EVALUATION TEST (α4β7-MADCAM-1 ELISA)
Coat the 96-well microplate (Costar) with 50 μL of recombinant human MAdCAM-1 (R&D Systems) solution per well, and incubate overnight (12-18 hours) at 4° C. Wash three times with 150 μL of TBS buffer per well. Block plate with 150 μL per well with blocking buffer for 1 h at 37° C. Wash three times with 150 μL of TBS buffer per well. Dilute the recombinant human integrin α4β7 (R&D Systems) with TBS buffer containing 0.1% bovine serum albumin (BSA), then add to the 96 well plate with 50 μL per well. Add 1 μL of test compound or DMSO, cover, incubate at room temperature for 2 h, wash three times with 150 μL of TBS buffer per well. Dilute the anti-β7 antibody (R&D Systems) with 0.1% BSA TBS buffer, then add to the 96 well plate with 50 μL per well, cover, incubate at room temperature for 1 h, wash three times with 150 μL of TBS buffer per well. Add 50 μL of streptavidin-HRP (R&D Systems) per well, incubate at room temperature for 20 min, wash three times with 150 μL of TBS buffer per well. Add 50 μL of TMB substrate solution (Sigma) per well, incubate at room temperature for 5-30 min, and add 25 μL of stop solution per well to stop the reaction. Finally, measure absorbance at 450 nm with microplate reader (SpectraMax 340PC. Molecular Devices). Repeat the test to find the binding rate of cells at each concentration when the absorbance of the well without the test substance is used as 100%, and calculate the concentration IC50 that causes 50% binding inhibition and summarize the results in Table 1.
It should be stated that, as a test compound, the free form of the compound synthesized in the above examples is used.

Chain of recombinant human integrin α4β7 (binding to recombinant human MAdCAM-1) (P13612 34-970): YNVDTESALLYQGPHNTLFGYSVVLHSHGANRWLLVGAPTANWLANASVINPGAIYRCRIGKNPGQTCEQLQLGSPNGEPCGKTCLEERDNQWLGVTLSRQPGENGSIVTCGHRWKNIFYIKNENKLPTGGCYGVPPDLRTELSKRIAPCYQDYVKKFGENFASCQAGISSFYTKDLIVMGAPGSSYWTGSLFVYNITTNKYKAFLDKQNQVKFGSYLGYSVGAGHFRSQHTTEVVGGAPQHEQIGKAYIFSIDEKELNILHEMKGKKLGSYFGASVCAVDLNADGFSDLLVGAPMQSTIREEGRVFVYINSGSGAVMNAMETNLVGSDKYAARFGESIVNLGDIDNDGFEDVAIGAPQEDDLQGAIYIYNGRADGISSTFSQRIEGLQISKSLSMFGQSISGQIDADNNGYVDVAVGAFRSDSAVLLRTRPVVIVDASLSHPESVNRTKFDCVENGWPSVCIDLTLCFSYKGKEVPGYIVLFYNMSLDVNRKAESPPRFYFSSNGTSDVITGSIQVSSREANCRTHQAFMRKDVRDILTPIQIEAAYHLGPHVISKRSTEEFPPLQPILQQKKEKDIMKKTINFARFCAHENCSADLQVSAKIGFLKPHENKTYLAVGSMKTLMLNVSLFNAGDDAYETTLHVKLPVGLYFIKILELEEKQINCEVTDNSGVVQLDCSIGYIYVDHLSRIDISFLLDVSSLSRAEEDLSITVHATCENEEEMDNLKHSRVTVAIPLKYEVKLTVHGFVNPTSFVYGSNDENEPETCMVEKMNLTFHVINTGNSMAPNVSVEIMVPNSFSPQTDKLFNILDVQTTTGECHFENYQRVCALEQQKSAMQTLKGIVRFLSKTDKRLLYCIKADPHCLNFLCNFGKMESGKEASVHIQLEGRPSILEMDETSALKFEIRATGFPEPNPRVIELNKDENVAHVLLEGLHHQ
Chain of recombinant human integrin α4β7 (binding to recombinant human MAdCAM-1) (P26010 20-723): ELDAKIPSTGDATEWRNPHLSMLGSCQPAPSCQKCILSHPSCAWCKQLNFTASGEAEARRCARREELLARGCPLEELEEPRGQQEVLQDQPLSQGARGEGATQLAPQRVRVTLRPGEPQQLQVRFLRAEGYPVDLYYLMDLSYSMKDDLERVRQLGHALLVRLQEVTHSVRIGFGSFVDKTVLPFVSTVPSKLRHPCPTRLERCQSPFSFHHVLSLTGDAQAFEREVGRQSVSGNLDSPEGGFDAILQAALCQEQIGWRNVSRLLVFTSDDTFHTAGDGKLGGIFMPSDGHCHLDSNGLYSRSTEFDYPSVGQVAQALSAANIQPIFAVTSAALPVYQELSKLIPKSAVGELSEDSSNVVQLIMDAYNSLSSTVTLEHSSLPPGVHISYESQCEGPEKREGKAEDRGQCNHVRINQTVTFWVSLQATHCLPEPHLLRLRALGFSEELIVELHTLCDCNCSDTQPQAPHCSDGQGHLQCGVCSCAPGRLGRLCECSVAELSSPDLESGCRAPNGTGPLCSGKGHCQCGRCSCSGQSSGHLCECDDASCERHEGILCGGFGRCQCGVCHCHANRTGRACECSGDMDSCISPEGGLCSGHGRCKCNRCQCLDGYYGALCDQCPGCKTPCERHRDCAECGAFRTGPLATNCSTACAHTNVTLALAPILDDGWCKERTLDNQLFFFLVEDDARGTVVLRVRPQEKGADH

| SMILES | IC50 [nM] |
| --- | --- |
| CN1CCC(n2c(=O)n(-c3ccc(C[C@H](NC(=O)c4c(F)cccc4Cl)C(=O)O)cc3)c3c(Cl)cccc32)CC1 [Example 29, (S)-3-(4-(7-chloro-3-(1-methylpiperidin-4-yl)-2-oxo-2,3-dihydro-1H-benzo[d]imidazol-1-yl)phenyl)-2-(2-chloro-6-fluorobenzoylamino)propionic acid] | 18.1 |
| Cn1c(=O)n(-c2ccc(C[C@H](NC(=O)c3c(F)cccc3Cl)C(=O)O)cc2)c2c(F)cc(F)cc21 [Example 31, (S)-2-(2-chloro-6-fluorobenzoylamino)-3-(4-(5,7-difluoro-3-methyl-2-oxo-2,3-dihydro-H-benzo[d]imidazol-1-yl)phenyl)propionic acid] | 5.34 |
| Cn1c(=O)n(-c2ccc(C[C@H](NC(=O)c3c(F)cccc3Cl)C(=O)O)cc2)c2cc(Cl)c(Cl)cc21 [Example 32, (S)-2-(2-chloro-6-fluorobenzoylamino)-3-(4-(5,6-dichloro-3-methyl-2-oxo-2,3-dihydro-H-benzo[d]imidazol-1-yl)phenyl)propionic acid] | 4.19 |
| Cn1c(=O)n(-c2ccc(C[C@H](NC(=O)c3c(F)cccc3Cl)C(=O)O)cc2)c2c(F)c(F)ccc21 [Example 33, (S)-2-(2-chloro-6-fluorobenzoylamino)-3-(4-(6,7-difluoro-3-methyl-2-exo-2,3-dihydro-1H-benzo[d]imidazol-1-yl)phenyl)propionic acid] | 2.7 |
| Cn1c(=O)n(-c2ccc(C[C@H](NC(=O)c3c(F)cccc3Cl)C(=O)O)cc2)c2ccc(F)c(F)c21 [Example 34, (S)-2-(2-chloro-6-fluorobenzoylamino)-3-(4-(4,5-difluoro-3-methyl-2-oxo-2,3-dihydro-1H-benzo[d]imidazol-1-yl)phenyl)propionic acid] | 10.5 |

Now from value to molecule:

| IC50 [nM] | SMILES |
| --- | --- |
| 0.45 | COc1cccc2c1n(-c1ccc(C[C@H](NC(=O)c3c(F)cccc3Cl)C(=O)O)cc1)c(=O)n2C [Example 35, (S)-2-(2-chloro-6-fluorobenzoylamino)-3-(4-(7-methoxy-3-methyl-2-oxo-2,3-dihydro-1H-benzo[d]imidazol-1-yl)phenyl)propionic acid] |
| 1.51 | CN(C)c1ccc2c(c1)n(-c1ccc(C[C@H](NC(=O)c3c(F)cccc3Cl)C(=O)O)cc1)c(=O)n2C [Example 36, (S)-2-(2-chloro-6-fluorobenzoylamino)-3-(4-(6-(dimethylamino)-3-methyl-2-oxo-2,3-dihydro-1H-benzo[d]imidazol-1-yl)phenyl)propionic acid] |
| 5.09 | CN(C)c1ccc2c(c1)n(C)c(=O)n2-c1ccc(C[C@H](NC(=O)c2c(F)cccc2Cl)C(=O)O)cc1 [Example 37, (S)-2-(2-chloro-6-fluorobenzoylamino)-3-(4-(5-(dimethylamino)-3-methyl-2-oxo-2,3-dihydro-1H-benzo[d]imidazol-1-yl)phenyl)propionic acid] |
| 27.9 | Cn1c(=O)n(-c2ccc(C[C@H](NC(=O)c3c(Cl)cc(Cl)cc3Cl)C(=O)O)cc2)c2c(Cl)cccc21 [Example 38, (S)-3-(4-(7-chloro-3-methyl-2-oxo-2,3-dihydro-1H-benzo[d]imidazol-1-yl)phenyl)-2-(2,4,6-trichlorobenzamido)propionic acid] |
| 3.65 | Cn1c(=O)n(-c2ccc(C[C@H](NC(=O)c3c(Cl)cc(N4CCOCC4)cc3Cl)C(=O)O)cc2)c2c(Cl)cccc21 [Example 39] |
